Data taken from PubChem BioAssay AID248 (DTP/NCI, 2004).
“And” between values parts separate entries of the source, which are not always exact repeats. Identical values can stand only once. Toxic doses and inconclusive results are not listed. Rule as the data show it: active = T/C of 150% or more; inactive = T/C below 125%.

Tested on: L1210 leukemia ip in BDF1 mice, survival T/C
Experiment: NCI In Vivo Anticancer Drug Screen. Data for tumor model L1210 Leukemia (intraperitoneal) in B6D2F1 (BDF1) mice
Details: endpoint: mean survival time, higher = longer survival
In short: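 Value reflects the ratio of survival in compound-treated mice to survival in vehicle-treated controls, with both groups carrying the same transplanted tumor.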

[1] = dose: 100.0 mg/kg/injection, schedule: Q01DX001 (ip), vehicle: saline with Tween-80
[2] = dose: 100.0 mg/kg/injection, schedule: Q04DX002 (ip), vehicle: saline with Tween-80
[3] = dose: 200.0 mg/kg/injection, schedule: Q01DX001 (ip), vehicle: saline with Tween-80
[4] = dose: 200.0 mg/kg/injection, schedule: Q04DX002 (ip), vehicle: saline with Tween-80
[5] = dose: 400.0 mg/kg/injection, schedule: Q04DX002 (ip), vehicle: saline with Tween-80
[6] = dose: 100.0 mg/kg/injection, schedule: Q04DX003 (ip), vehicle: saline with Tween-80
[7] = dose: 200.0 mg/kg/injection, schedule: Q04DX003 (ip), vehicle: saline with Tween-80
[8] = dose: 400.0 mg/kg/injection, schedule: Q04DX003 (ip), vehicle: saline with Tween-80
[9] = dose: 100.0 mg/kg/injection, schedule: Q01DX009 (ip), vehicle: Klucel (hydroxypropylcellulose) (HPC)
[10] = dose: 200.0 mg/kg/injection, schedule: Q01DX009 (ip), vehicle: Klucel (hydroxypropylcellulose) (HPC)
[11] = dose: 400.0 mg/kg/injection, schedule: Q01DX009 (ip), vehicle: Klucel (hydroxypropylcellulose) (HPC)
[12] = dose: 50.0 mg/kg/injection, schedule: Q01DX009 (ip), vehicle: Klucel (hydroxypropylcellulose) (HPC)
[13] = dose: 100.0 mg/kg/injection, schedule: Q04DX003 (ip), vehicle: Klucel (hydroxypropylcellulose) (HPC)
[14] = dose: 100.0 mg/kg/injection, schedule: Q04DX003 (ip), vehicle: saline
[15] = dose: 200.0 mg/kg/injection, schedule: Q04DX003 (ip), vehicle: Klucel (hydroxypropylcellulose) (HPC)
[16] = dose: 200.0 mg/kg/injection, schedule: Q04DX003 (ip), vehicle: saline
[17] = dose: 400.0 mg/kg/injection, schedule: Q04DX003 (ip), vehicle: Klucel (hydroxypropylcellulose) (HPC)
[18] = dose: 400.0 mg/kg/injection, schedule: Q04DX003 (ip), vehicle: saline
[19] = dose: 100.0 mg/kg/injection, schedule: Q04DX002 (ip), vehicle: Klucel (hydroxypropylcellulose) (HPC)
[20] = dose: 200.0 mg/kg/injection, schedule: Q04DX002 (ip), vehicle: Klucel (hydroxypropylcellulose) (HPC)
[21] = dose: 400.0 mg/kg/injection, schedule: Q04DX002 (ip), vehicle: Klucel (hydroxypropylcellulose) (HPC)

Measured: T/C

C=CCc1ccc(OC(=O)Nc2cc(Cl)ccc2OC)c(OC)c1
inactive: [1] 102 % of control | dose: 100.0 mg/kg/injection, schedule: Q01DX009 (ip), vehicle: saline with Tween-80 90 % of control | [2] 101 % of control and 91 % of control | [3] 90 % of control | dose: 200.0 mg/kg/injection, schedule: Q01DX009 (ip), vehicle: saline with Tween-80 96 % of control | [4] 95 % of control | dose: 400.0 mg/kg/injection, schedule: Q01DX001 (ip), vehicle: saline with Tween-80 90 % of control | dose: 400.0 mg/kg/injection, schedule: Q01DX009 (ip), vehicle: saline with Tween-80 95 % of control | [5] 87 % of control and 90 % of control

NC(=O)c1c(/N=C/c2cc(Cl)cc(Cl)c2O)sc2c1CCCC2
inactive: [2] 96 % of control | [4] 93 % of control | [5] 96 % of control

C=CCNC(=S)N/N=C\c1cc(OC)c(OC)c(OC)c1
inactive: [6] 96 % of control | [7] 94 % of control | [8] 98 % of control

COC(=O)c1n[nH]c(C(C)C)c1N=NN(C)C
inactive: dose: 50.0 mg/kg/injection, schedule: Q01DX009 (ip), vehicle: saline with Tween-80 116 % of control | [6] 116 % of control | dose: 132.0 mg/kg/injection, schedule: Q04DX003 (ip), vehicle: saline with Tween-80 111 % of control | [7] 119 % of control | dose: 300.0 mg/kg/injection, schedule: Q04DX003 (ip), vehicle: saline with Tween-80 111 % of control | [8] 96 % of control

NC(=S)N/N=C/c1cc(Br)c(O)c(Br)c1
inactive: [9] 104 % of control | [10] 91 % of control | [11] 98 % of control

C=C(Cl)C(=O)OCC
inactive: dose: 5.0 mg/kg/injection, schedule: Q01DX009 (ip), vehicle: saline 103 % of control | dose: 5.0 mg/kg/injection, schedule: Q04DX003 (ip), vehicle: saline with Tween-80 93 % of control | dose: 10.0 mg/kg/injection, schedule: Q01DX009 (ip), vehicle: saline 98 % of control | dose: 10.0 mg/kg/injection, schedule: Q04DX003 (ip), vehicle: saline with Tween-80 95 % of control | dose: 20.0 mg/kg/injection, schedule: Q01DX009 (ip), vehicle: saline 104 % of control | dose: 20.0 mg/kg/injection, schedule: Q04DX003 (ip), vehicle: saline with Tween-80 95 % of control

O=C(O)c1[nH]c(=O)[nH]c(=O)c1N1CCCCC1
inactive: dose: 12.0 mg/kg/injection, schedule: Q01DX001 (ip), vehicle: saline 106 % of control | dose: 25.0 mg/kg/injection, schedule: Q01DX001 (ip), vehicle: saline 101 % of control | dose: 25.0 mg/kg/injection, schedule: Q01DX009 (ip), vehicle: Klucel (hydroxypropylcellulose) (HPC) 105 % of control | [12] 92 % of control

CN(C)c1ccc(/C=C(\C#N)c2ccccc2)cc1
inactive: [1] 87 % of control | [3] 88 % of control

CC1(CCC#N)CCC(N)=CC1=O (stereo not drawn)
inactive: dose: 100.0 mg/kg/injection, schedule: Q01DX001 (ip), vehicle: carboxymethylcellulose (CMC) 96 % of control | dose: 200.0 mg/kg/injection, schedule: Q01DX001 (ip), vehicle: carboxymethylcellulose (CMC) 98 % of control | dose: 400.0 mg/kg/injection, schedule: Q01DX001 (ip), vehicle: carboxymethylcellulose (CMC) 96 % of control

CC(=O)OCCC(CCCl)OC(C)=O (stereo not drawn)
inactive: [2] 111 % of control | [4] 104 % of control | [5] 93 % of control

NNc1cnc2ccccc2n1
inactive: dose: 100.0 mg/kg/injection, schedule: Q01DX009 (ip), vehicle: saline sonified 90 % of control | [6] 101 % of control | [7] 97 % of control | [8] 113 % of control

O=C(NNc1ccccc1)c1ccccc1
inactive: [12] 101 % of control | [9] 101 % of control | [13] 94 % of control | [14] 100 % of control | [10] 110 % of control | [15] 107 % of control | [16] 103 % of control | [17] 100 % of control | [18] 93 % of control

C1=NC(c2ccccc2)=CN(C2CCCCCC2)C1(c1ccccc1)C1CCCCCC1 (stereo not drawn)
inactive: dose: 50.0 mg/kg/injection, schedule: Q04DX002 (ip), vehicle: saline 99 % of control | [19] 98 % of control | dose: 100.0 mg/kg/injection, schedule: Q04DX002 (ip), vehicle: saline 101 % of control | [20] 88 % of control | dose: 200.0 mg/kg/injection, schedule: Q04DX002 (ip), vehicle: saline 96 % of control | [21] 95 % of control

CC1(C)CC(=O)C2C(C1)Nc1ccccc1NC2c1ccccc1[N+](=O)[O-] (stereo not drawn)
inactive: [19] 103 % of control and 110 % of control | [20] 98 % of control and 92 % of control | [21] 95 % of control

Cc1cccc(C)c1NC(=O)Oc1ccc2ccccc2c1
inactive: [9] 91 % of control | [13] 104 % of control | [10] 94 % of control | [15] 104 % of control | [11] 101 % of control | [17] 105 % of control

NCCCCC(N)C(=O)O (stereo not drawn)
inactive: dose: 100.0 mg/kg/injection, schedule: Q01DX001 (ip), vehicle: Klucel (hydroxypropylcellulose) (HPC) 115 % of control | dose: 100.0 mg/kg/injection, schedule: Q01DX001 (ip), vehicle: saline 94 % of control | dose: 200.0 mg/kg/injection, schedule: Q01DX001 (ip), vehicle: Klucel (hydroxypropylcellulose) (HPC) 100 % of control | dose: 200.0 mg/kg/injection, schedule: Q01DX001 (ip), vehicle: saline 97 % of control | dose: 400.0 mg/kg/injection, schedule: Q01DX001 (ip), vehicle: Klucel (hydroxypropylcellulose) (HPC) 86 % of control | dose: 400.0 mg/kg/injection, schedule: Q01DX001 (ip), vehicle: saline 94 % of control

Nc1ccc(S(=O)(=O)O)cc1[N+](=O)[O-]
inactive: [14] 93 % of control | [16] 95 % of control | [18] 96 % of control

CCCCOCCOC(=O)CC(/C=C(/C)CC(C)(C)C)C(=O)OCCOCCCC (stereo not drawn)
inactive: dose: 222.0 mg/kg/injection, schedule: Q01DX Z (ip), vehicle: methylcellulose (MC) 101 % of control | dose: 333.0 mg/kg/injection, schedule: Q01DX Z (ip), vehicle: methylcellulose (MC) 108 % of control | dose: 500.0 mg/kg/injection, schedule: Q01DX Z (ip), vehicle: methylcellulose (MC) 96 % of control

CC1(C)OC(CI)C(COS(C)(=O)=O)O1 (stereo not drawn)
inactive: [6] 114 % of control | dose: 115.0 mg/kg/injection, schedule: Q01DX001 (ip), vehicle: steriod suspending solution 97 % of control | dose: 173.0 mg/kg/injection, schedule: Q01DX001 (ip), vehicle: steriod suspending solution 90 % of control | [7] 105 % of control | [8] 111 % of control

Cc1cc(C)c(NC(=O)Nc2ccc(Cl)cc2)c(C)c1
inactive: [9] 92 % of control | [13] 100 % of control | [10] 92 % of control | [15] 97 % of control | [11] 96 % of control | [17] 97 % of control

Cc1n[nH]c(=S)[nH]c1=S
inactive: [6] 97 % of control

S=C(NCc1ccco1)NCc1ccco1
inactive: dose: 155.0 mg/kg/injection, schedule: Q01DX Z (ip), vehicle: methylcellulose (MC) 92 % of control | dose: 233.0 mg/kg/injection, schedule: Q01DX Z (ip), vehicle: methylcellulose (MC) 100 % of control

Cc1ccc(O)c(C(=O)C(C)CCCC(C)C)c1 (stereo not drawn)
inactive: dose: 75.0 mg/kg/injection, schedule: Q01DX009 (ip), vehicle: Klucel (hydroxypropylcellulose) (HPC) 89 % of control | dose: 150.0 mg/kg/injection, schedule: Q01DX009 (ip), vehicle: Klucel (hydroxypropylcellulose) (HPC) 94 % of control | dose: 300.0 mg/kg/injection, schedule: Q01DX009 (ip), vehicle: Klucel (hydroxypropylcellulose) (HPC) 100 % of control

O=C1N/C(=N\OCc2ccccc2Cl)CC(NOCc2ccccc2Cl)N1 (stereo not drawn)
inactive: [6] 91 % of control | [7] 97 % of control | [8] 95 % of control

C[N+](C)(CC(=O)Nc1ccc(Cl)c(C(F)(F)F)c1)Cc1ccc(Cl)cc1
inactive: [6] 100 % of control
